Measurements: patent US9174980B2, “Heterocyclic compounds as inhibitors of leukotriene production” (Boehringer Ingelheim International GmbH, priority 2012, dated 2015)

How the values were obtained:
[1] = target: T1, recombinant human FLAP protein (Homo sapiens, UniProt P20292); experiment: FLAP binding assay (Scintillation Proximity Assay, displacement of [125I]L-691,831); details: read-out: Human FLAP SPA Binding (IC50 nM)
T1 construct: made in house; host or cells: Sf9 insect cells (membrane fraction, 100,000 x g pellet)
T1 sequence (P20292 1-161): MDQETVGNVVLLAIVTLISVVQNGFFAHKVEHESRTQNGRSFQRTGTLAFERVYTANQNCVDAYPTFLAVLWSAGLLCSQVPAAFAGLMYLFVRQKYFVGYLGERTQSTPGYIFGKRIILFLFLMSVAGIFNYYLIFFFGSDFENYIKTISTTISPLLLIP
Summary of the method: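 Membranes from sf9 cells expressing recombinant human FLAP (5 μg/well) on WGA SPA beads were incubated with compound and 0.08 nM [125I]L-691,831 in Tris pH 7.5 binding buffer, shaken 2 h. Displacement read by scintillation proximity; non-specific binding set with 10 μM unlabelled L-691,831.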

[2] = system: synthesis of LTB4 in human whole blood; experiment: Human whole blood assay (calcimycin-stimulated LTB4 synthesis); format: cell-based; details: Homo sapiens; read-out: Human Whole Blood LTB4 Assay for FLAP (IC50 nM)
Summary of the method: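 Readout: plasma LTB4 by antibody-based HTRF. Compound added to heparinized human whole blood, 15 min 37° C; calcimycin 20 μM final (PBS pH 7.4), 30 min 37° C; spun 1500×g 5 min, plasma taken.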

SMILES	IC50 [1]	IC50 [2]
CN(C)C(=O)Cn1cc(-c2cc(C(C)(c3ccc(-c4cnc(N)nc4)cc3)C3CC3)no2)cn1 (stereo not shown) [Example 183, 2-[4-(3-{1-[4-(2-aminopyrimidin-5-yl)phenyl]-1-cyclopropylethyl}-1,2-oxazol-5-yl)-1H-pyrazol-1-yl]-N,N-dimethylacetamide]	9 nM	200 nM
CC(C)(O)Cn1cc(-c2cc(C(C)(c3ccc(-c4cnc(N)nc4)cc3)C3CC3)no2)cn1 (stereo not shown) [Example 184, 1-[4-(3-{1-[4-(2-aminopyrimidin-5-yl)phenyl]-1-cyclopropylethyl}-1,2-oxazol-5-yl)-1H-pyrazol-1-yl]-2-methylpropan-2-ol]	8.4 nM	97 nM
Cn1cc(-c2coc([C@@](C)(c3ccc(-c4cnc(N)nc4)cc3)C3CC3)n2)cn1 [Example 185, 5-[4-[(1R)-1-cyclopropyl-1-[4-(1-methylpyrazol-4-yl)oxazol-2-yl]ethyl]phenyl]pyrimidin-2-amine]	3.3 nM	54 nM
Cn1cc(-c2coc([C@](C)(c3ccc(-c4cnc(N)nc4)cc3)C3CC3)n2)cn1 [Example 186, 5-[4-[(1S)-1-cyclopropyl-1-[4-(1-methylpyrazol-4-yl)oxazol-2-yl]ethyl]phenyl]pyrimidin-2-amine]	87 nM	2000 nM
CN(C)CCn1cc(-c2cc(C(C)(c3ccc(-c4cnc(N)nc4)cc3)C3CC3)no2)cn1 (stereo not shown) [Example 187, 5-{4-[1-cyclopropyl-1-(5-{1-[2-(dimethylamino)ethyl]-1H-pyrazol-4-yl}-1,2-oxazol-3-yl)ethyl]phenyl}pyrimidin-2-amine]	9.9 nM	67 nM
Cn1cc(-c2c(C3(c4ccc(-c5cnc(N)nc5)cc4)CCC3)c3ccccc3n2C(=O)OC(C)(C)C)cn1 [Example 188, tert-butyl 3-{1-[4-(2-aminopyrimidin-5-yl)phenyl]cyclobutyl}-2-(1-methyl-1H-pyrazol-4-yl)-1H-indole-1-carboxylate]	270 nM	> 5000 nM
Cn1cc(-c2[nH]c3ccccc3c2C2(c3ccc(-c4cnc(N)nc4)cc3)CCC2)cn1 [Example 189]	5.3 nM	280 nM
Cn1cc(-c2cnc(C3(c4ccc(-c5cnc(N)nc5)cc4)CCC3)s2)cn1 [Example 190, 5-(4-{1-[5-(1-methyl-1H-pyrazol-4-yl)-1,3-thiazol-2-yl]cyclobutyl}phenyl)pyrimidin-2-amine]	4.9 nM	80 nM
CC(C)[C@](C)(c1ccc(-c2cnc(N)nc2)nc1)c1cc(-c2cnn(C)c2)on1 [Example 191, 5-(5-{(2R)-3-methyl-2-[5-(1-methyl-1H-pyrazol-4-yl)-1,2-oxazol-3-yl]butan-2-yl}pyridin-2-yl)pyrimidin-2-amine]	7.5 nM	56 nM
CC(C)[C@@](C)(c1ccc(-c2cnc(N)nc2)nc1)c1cc(-c2cnn(C)c2)on1 [Example 192, 5-(5-{(2S)-3-methyl-2-[5-(1-methyl-1H-pyrazol-4-yl)-1,2-oxazol-3-yl]butan-2-yl}pyridin-2-yl)pyrimidin-2-amine]	210 nM	1900 nM
COCCNC(=O)c1[nH]c2ccccc2c1C1(c2ccc(-c3cnc(N)nc3)cc2)CCC1 [Example 193]	7.9 nM	450 nM
CN(C)C(=O)Cn1cc(-c2coc(C(C)(c3ccc(-c4cnc(N)nc4)cc3)C3CC3)n2)cn1 (stereo not shown) [Example 194, 2-[4-(2-{1-[4-(2-aminopyrimidin-5-yl)phenyl]-1-cyclopropylethyl}-1,3-oxazol-4-yl)-1H-pyrazol-1-yl]-N-dimethylacetamide]	40 nM	560 nM
CN(C)C(=O)Cn1cc(-c2coc([C@@](C)(c3ccc(-c4cnc(N)nc4)cc3)C3CC3)n2)cn1 [Example 195, 2-[4-(2-{(1R)-1-[4-(2-aminopyrimidin-5-yl)phenyl]-1-cyclopropylethyl}-1,3-oxazol-4-yl)-1H-pyrazol-1-yl]-N,N-dimethylacetamide]	18 nM	280 nM
CN(C)C(=O)Cn1cc(-c2coc([C@](C)(c3ccc(-c4cnc(N)nc4)cc3)C3CC3)n2)cn1 [Example 196, 2-[4-(2-{(1S)-1-[4-(2-aminopyrimidin-5-yl)phenyl]-1-cyclopropylethyl}-1,3-oxazol-4-yl)-1H-pyrazol-1-yl]-N,N-dimethylacetamide]	380 nM	2000 nM
CN(C)C(=O)Cn1cc(-c2cc([C@@](C)(c3ccc(-c4cnc(N)nc4)cc3)C3CC3)no2)cn1 [Example 197, 2-[4-(3-{(1R)-1-[4-(2-aminopyrimidin-5-yl)phenyl]-1-cyclopropylethyl}-1,2-oxazol-5-yl)-1H-pyrazol-1-yl]-N,N-dimethylacetamide]	5.3 nM	93 nM
CN(C)C(=O)Cn1cc(-c2cc([C@](C)(c3ccc(-c4cnc(N)nc4)cc3)C3CC3)no2)cn1 [Example 198, 2-[4-(3-{(1S)-1-[4-(2-aminopyrimidin-5-yl)phenyl]-1-cyclopropylethyl}-1,2-oxazol-5-yl)-1H-pyrazol-1-yl]-N,N-dimethylacetamide]	350 nM	1600 nM
Cn1cc(-c2cc(C(C)(c3ccc(-c4cnc(N)nc4)nc3)C3CC3)no2)cn1 (stereo not shown) [Example 199, 5-(5-{1-Cyclopropyl-1-[5-(1-methyl-1H-pyrazol-4-yl)-isoxazol-3-yl]-ethyl}-pyridin-2-yl)-pyrimidin-2-ylamine]	230 nM	590 nM
Cn1cc(-c2cc([C@@](C)(c3ccc(-c4cnc(N)nc4)nc3)C3CC3)no2)cn1 [Example 200]	140 nM	450 nM
Cn1cc(-c2cc([C@](C)(c3ccc(-c4cnc(N)nc4)nc3)C3CC3)no2)cn1 [Example 201, 5-(5-{(S)-1-Cyclopropyl-1-[5-(1-methyl-1H-pyrazol-4-yl)-isoxazol-3-yl]-ethyl}-pyridin-2-yl)-pyrimidin-2-ylamine]	> 2000 nM	3500 nM
CC(C)(O)Cn1cc(-c2coc(C(C)(c3ccc(-c4cnc(N)nc4)cc3)C3CC3)n2)cn1 (stereo not shown) [Example 202, 1-[4-(2-{1-[4-(2-Amino-pyrimidin-5-yl)-phenyl]-1-cyclopropyl-ethyl}-oxazol-4-yl)-pyrazol-1-yl]-2-methyl-propan-2-ol]	69 nM	230 nM
CC(C)(O)Cn1cc(-c2coc([C@@](C)(c3ccc(-c4cnc(N)nc4)cc3)C3CC3)n2)cn1 [Example 203, 1-[4-(2-{(R)-1-[4-(2-Amino-pyrimidin-5-yl)-phenyl]-1-cyclopropyl-ethyl}-oxazol-4-yl)-pyrazol-1-yl]-2-methyl-propan-2-ol]	36 nM	190 nM
CC(C)(O)Cn1cc(-c2coc([C@](C)(c3ccc(-c4cnc(N)nc4)cc3)C3CC3)n2)cn1 [Example 204, 1-[4-(2-{(S)-1-[4-(2-Amino-pyrimidin-5-yl)-phenyl]-1-cyclopropyl-ethyl}-oxazol-4-yl)-pyrazol-1-yl]-2-methyl-propan-2-ol]	560 nM	1500 nM
CN(C)C(=O)Cn1cc(-c2coc(C(C)(c3ccc(-c4cnc(N)nc4)nc3)C3CC3)n2)cn1 (stereo not shown) [Example 205, 2-[4-(2-{1-[6-(2-Amino-pyrimidin-5-yl)-pyridin-3-yl]-1-cyclopropyl-ethyl}-oxazol-4-yl)-pyrazol-1-yl]-N,N-dimethyl-acetamide]	1500 nM	1600 nM
Cn1cc(-c2coc(C(C)(c3ccc(-c4cnc(N)nc4)nc3)C3CC3)n2)cn1 (stereo not shown) [Example 206, 5-(5-{1-Cyclopropyl-1-[4-(1-methyl-1H-pyrazol-4-yl)-oxazol-2-yl]-ethyl}-pyridin-2-yl)-pyrimidin-2-ylamine]	180 nM	930 nM
Cn1cc(-c2coc([C@@](C)(c3ccc(-c4cnc(N)nc4)nc3)C3CC3)n2)cn1 [Example 207, 5-(5-{(R)-1-Cyclopropyl-1-[4-(1-methyl-1H-pyrazol-4-yl)-oxazol-2-yl]-ethyl}-pyridin-2-yl)-pyrimidin-2-ylamine]	110 nM	220 nM
Cn1cc(-c2coc([C@](C)(c3ccc(-c4cnc(N)nc4)nc3)C3CC3)n2)cn1 [Example 208, 5-(5-{(S)-1-Cyclopropyl-1-[4-(1-methyl-1H-pyrazol-4-yl)-oxazol-2-yl]-ethyl}-pyridin-2-yl)-pyrimidin-2-ylamine]	> 2000 nM	1300 nM
CC(C)(O)Cn1cc(-c2coc(C(C)(c3ccc(-c4cnc(N)nc4)nc3)C3CC3)n2)cn1 (stereo not shown) [Example 209, 1-[4-(2-{1-[6-(2-Amino-pyrimidin-5-yl)-pyridin-3-yl]-1-cyclopropyl-ethyl}-oxazol-4-yl)-pyrazol-1-yl]-2-methyl-propan-2-ol]	300 nM	560 nM
CC(C)(O)Cn1cc(-c2coc([C@@](C)(c3ccc(-c4cnc(N)nc4)nc3)C3CC3)n2)cn1 [Example 210, 1-[4-(2-{(R)-1-[6-(2-Amino-pyrimidin-5-yl)-pyridin-3-yl]-1-cyclopropyl-ethyl}-oxazol-4-yl)-pyrazol-1-yl]-2-methyl-propan-2-ol]	180 nM	530 nM
CC(C)(O)Cn1cc(-c2coc([C@](C)(c3ccc(-c4cnc(N)nc4)nc3)C3CC3)n2)cn1 [Example 211, 1-[4-(2-{(S)-1-[6-(2-Amino-pyrimidin-5-yl)-pyridin-3-yl]-1-cyclopropyl-ethyl}-oxazol-4-yl)-pyrazol-1-yl]-2-methyl-propan-2-ol]	> 2000 nM	> 5000 nM
